Assays:
Experiment in all cases: combination Emax (second highest fraction inhibited in the dose matrix, 72 h); higher = more inhibition; extreme values may be limits of the assay
[1] = tested on: T84 (Colorectal Carcinoma)
Procedure, shortened: (§1)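 Cell lines grown in DMEM/F12 or RPMI with 10% FBS were plated in 1536-well plates and held 24 hours at 37°C, 5% CO2 before 72 hours of exposure to two-drug dose matrices, with DMSO typically at 0.2%. CellTiter-Glo 2.0 luminescence gave viability, which was converted to inhibition. Vehicle wells were set to 0 and blank wells to 1. Combination Emax is the second-highest inhibition in the matrix, and Bliss excess is the observed combination effect minus the expected EA + EB − EA·EB, where EA and EB are the single-agent effects.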

[2] = tested on: BxPC-3 (Pancreatic Carcinoma)
Procedure, shortened: as §1

[3] = tested on: P32-ISH (Burkitt's Lymphoma)
Procedure, shortened: as §1

[4] = tested on: SUP-M2 (T-Cell Non-Hodgkin's Lymphoma)
Procedure, shortened: as §1

ES6 (Ewing's Sarcoma) = tested on: ES6 (Ewing's Sarcoma)
Procedure, shortened: as §1

SK-N-SH (Neuroblastoma) = tested on: SK-N-SH (Neuroblastoma)
Procedure, shortened: as §1

[5] = tested on: DBTRG-05MG (Glioblastoma)
Procedure, shortened: as §1

[6] = tested on: TUR (Acute Myeloid Leukemia)
Procedure, shortened: as §1

[7] = tested on: CPC-N (Small Cell Lung Carcinoma)
Procedure, shortened: as §1

[8] = tested on: BHT-101 (Thyroid Gland Carcinoma)
Procedure, shortened: as §1

NCI-H2373 (Mesothelioma) = tested on: NCI-H2373 (Mesothelioma)
Procedure, shortened: as §1

[9] = tested on: IA-LM (Non-Small Cell Lung Carcinoma)
Procedure, shortened: as §1

[10] = tested on: SNU-407 (Colorectal Carcinoma)
Procedure, shortened: as §1

[11] = tested on: OAW-28 (Ovarian Carcinoma)
Procedure, shortened: as §1

[12] = tested on: MONO-MAC-6 (Acute Myeloid Leukemia)
Procedure, shortened: as §1

[13] = tested on: LS-1034 (Colorectal Carcinoma)
Procedure, shortened: as §1

[14] = tested on: OVCAR-3 (Ovarian Carcinoma)
Procedure, shortened: as §1

[15] = tested on: SCC-4 (Oral Cavity Carcinoma)
Procedure, shortened: as §1

T47D (Breast Carcinoma) = tested on: T47D (Breast Carcinoma)
Procedure, shortened: as §1

[16] = tested on: NCI-H596 (Other Solid Carcinomas)
Procedure, shortened: as §1

| Structure (SMILES) | combination Emax [1] | combination Emax [2] | combination Emax [3] | combination Emax [4] | combination Emax (ES6 (Ewing's Sarcoma)) | combination Emax (SK-N-SH (Neuroblastoma)) | combination Emax [5] | combination Emax [6] | combination Emax [7] | combination Emax [8] | combination Emax (NCI-H2373 (Mesothelioma)) | combination Emax [9] | combination Emax [10] | combination Emax [11] | combination Emax [12] | combination Emax [13] | combination Emax [14] | combination Emax [15] | combination Emax (T47D (Breast Carcinoma)) | combination Emax [16] |
| --- | --- | --- | --- | --- | --- | --- | --- | --- | --- | --- | --- | --- | --- | --- | --- | --- | --- | --- | --- | --- |
| CN(CCO)CC[C@H](CSc1ccccc1)Nc1ccc(S(=O)(=O)NC(=O)c2ccc(N3CCC([C@@H](O)c4ccccc4-c4ccc(Cl)cc4)CC3)cc2)cc1S(=O)(=O)C(F)(F)F [AZD4320] + C[C@@H]1COCCN1C2=NC(=NC(=C2)C3(CC3)[S@](=N)(=O)C)C4=C5C=CNC5=NC=C4 [AZD6738] (first compound max 1 µM, 7x7, partner max 10 µM) | 0.719 | 0.751 | 0.896 | 0.998 | 0.665 | 0.988 | 0.834 | 0.971 | 1 | 0.877 | 0.672 | 0.715 | 0.709 | 0.957 | 0.943 | 0.721 | 0.555 | 0.872 | 0.324 | 0.425 |
| CN(CCO)CC[C@H](CSc1ccccc1)Nc1ccc(S(=O)(=O)NC(=O)c2ccc(N3CCC([C@@H](O)c4ccccc4-c4ccc(Cl)cc4)CC3)cc2)cc1S(=O)(=O)C(F)(F)F [AZD4320] + C[C@@H](Nc1cc(F)cc(F)c1)c1cc(C(=O)N(C)C)cc2c(=O)cc(N3CCOCC3)oc12 [AZD8186] (first compound max 1 µM, 7x7, partner max 3 µM) | 0.249 | 0.252 | 0.782 | 0.944 | 0.463 | 0.986 | 0.935 | 0.19 | 0.95 | 0.616 | 0.48 | 0.617 | 0.311 | 0.991 | 0.714 | 0.334 | 0.512 | 0.765 | 0.439 | 0.381 |
| CN(CCO)CC[C@H](CSc1ccccc1)Nc1ccc(S(=O)(=O)NC(=O)c2ccc(N3CCC([C@@H](O)c4ccccc4-c4ccc(Cl)cc4)CC3)cc2)cc1S(=O)(=O)C(F)(F)F [AZD4320] + Cc1cc2ncnn2cc1Nc1ncc2c(n1)n(C1CCOCC1)c(=O)n2C [AZD7648] (first compound max 1 µM, 7x7, partner max 10 µM) | 0.0764 | 0.0888 | 0.193 | 0.47 | 0.268 | 0.828 | 0.827 | 0.242 | 0.984 | 0.363 | 0.374 | 0.488 | 0.721 | 0.899 | 0.393 | 0.159 | 0.156 | 0.737 | 0.312 | 0.338 |
| CN(CCO)CC[C@H](CSc1ccccc1)Nc1ccc(S(=O)(=O)NC(=O)c2ccc(N3CCC([C@@H](O)c4ccccc4-c4ccc(Cl)cc4)CC3)cc2)cc1S(=O)(=O)C(F)(F)F [AZD4320] + Cn1cnc2c(F)c(Nc3ccc(Br)cc3Cl)c(C(=O)NOCCO)cc21 [Selumetinib] (first compound max 1 µM, 7x7, partner max 3 µM) | 0.319 | 0.379 | 0.801 | 0.959 | 0.449 | 0.995 | 0.702 | 0.161 | 0.955 | 0.852 | 0.406 | 0.744 | 0.57 | 0.984 | 0.658 | 0.594 | 0.563 | 0.775 | 0.314 | 0.343 |
| COc1nnc2ccc(N3CCC(c4ccc(OCCN5CCN(C)C(=O)[C@H]5C)cc4)CC3)nn12 [AZD5153] + C=CCn1c(=O)c2cnc(Nc3ccc(N4CCN(C)CC4)cc3)nc2n1-c1cccc(C(C)(C)O)n1 [AZD1775] (first compound max 1 µM, partner max 1 µM) | 0.349 | 0.529 | 0.982 | 0.996 | 0.516 | 0.645 | 0.369 | 0.867 | 0.918 | 0.737 | 0.399 | 0.348 | 0.89 | 0.701 | 0.989 | 0.613 | 0.852 | 0.568 | 0.505 | 0.803 |
| COc1nnc2ccc(N3CCC(c4ccc(OCCN5CCN(C)C(=O)[C@H]5C)cc4)CC3)nn12 [AZD5153] + CC1(C)CCC(CN2CCN(c3ccc(C(=O)NS(=O)(=O)c4ccc(NCC5CCOCC5)c([N+](=O)[O-])c4)c(Oc4cnc5[nH]ccc5c4)c3)CC2)=C(c2ccc(Cl)cc2)C1 [Venetoclax] (first compound max 1 µM, 7x7, partner max 1 µM) | 0.219 | 0.473 | 0.701 | 0.965 | 0.292 | 0.623 | 0.252 | 0.458 | 0.539 | 0.718 | 0.39 | 0.495 | 0.902 | 0.352 | 0.989 | 0.538 | 0.522 | 0.389 | 0.483 | 0.751 |
| COc1nnc2ccc(N3CCC(c4ccc(OCCN5CCN(C)C(=O)[C@H]5C)cc4)CC3)nn12 [AZD5153] + CCN(CCO)CCCOc1ccc2c(Nc3cc(CC(=O)Nc4cccc(F)c4)[nH]n3)ncnc2c1 [AZD2811] (first compound max 1 µM, 7x7, partner max 1 µM) | 0.202 | 0.491 | 0.873 | 0.994 | 0.43 | 0.532 | 0.333 | 0.827 | 0.697 | 0.7 | 0.41 | 0.401 | 0.866 | 0.431 | 0.995 | 0.535 | 0.602 | 0.444 | 0.494 | 0.744 |
| COc1nnc2ccc(N3CCC(c4ccc(OCCN5CCN(C)C(=O)[C@H]5C)cc4)CC3)nn12 [AZD5153] + C[C@@H]1COCCN1C2=NC(=NC(=C2)C3(CC3)[S@](=N)(=O)C)C4=C5C=CNC5=NC=C4 [AZD6738] (first compound max 1 µM, 7x7, partner max 10 µM) | 0.583 | 0.602 | 0.957 | 1 | 0.585 | 0.861 | 0.307 | 0.984 | 0.967 | 0.816 | 0.565 | 0.443 | 0.958 | 0.851 | 1 | 0.758 | 0.821 | 0.732 | 0.637 | 0.79 |
| COc1nnc2ccc(N3CCC(c4ccc(OCCN5CCN(C)C(=O)[C@H]5C)cc4)CC3)nn12 [AZD5153] + Cc1c2c(nn1C)CSCc1cc(n(C)n1)CSc1cc(c3ccccc3c1)OCCCc1c(C(=O)O)n(C)c3c-2c(Cl)ccc13 [AZD5991] (first compound max 1 µM, 7x7, partner max 1 µM) | 0.23 | 0.463 | 1 | 1 | 0.45 | 0.526 | 0.205 | 0.998 | 0.751 | 0.84 | 0.381 | 0.483 | 0.977 | 0.666 | 1 | 0.491 | 0.632 | 0.775 | 0.571 | 0.79 |
| COc1nnc2ccc(N3CCC(c4ccc(OCCN5CCN(C)C(=O)[C@H]5C)cc4)CC3)nn12 [AZD5153] + Cn1cnc2c(F)c(Nc3ccc(Br)cc3Cl)c(C(=O)NOCCO)cc21 [Selumetinib] (first compound max 1 µM, 7x7, partner max 10 µM) | 0.483 | 0.616 | 0.65 | 1 | 0.297 | 0.521 | 0.399 | 0.744 | 0.451 | 0.966 | 0.439 | 0.457 | 0.938 | 0.498 | 0.986 | 0.814 | 0.54 | 0.509 | 0.549 | 0.725 |
| Cc1c2c(nn1C)CSCc1cc(n(C)n1)CSc1cc(c3ccccc3c1)OCCCc1c(C(=O)O)n(C)c3c-2c(Cl)ccc13 [AZD5991] + C1CN(CCC1(C(=O)N[C@@H](CCO)C2=CC=C(C=C2)Cl)N)C3=NC=NC4=C3C=CN4 [Capivasertib] (first compound max 1 µM, 7x7, partner max 3 µM) | 0.0983 | 0.126 | 1 | 1 | 0.281 | 0.387 | 0.199 | 0.913 | 0.338 | 0.418 | 0.42 | 0.15 | 0.774 | 0.224 | 1 | 0.22 | 0.185 | 0.334 | 0.579 | 0.318 |
| Cc1c2c(nn1C)CSCc1cc(n(C)n1)CSc1cc(c3ccccc3c1)OCCCc1c(C(=O)O)n(C)c3c-2c(Cl)ccc13 [AZD5991] + C=CCn1c(=O)c2cnc(Nc3ccc(N4CCN(C)CC4)cc3)nc2n1-c1cccc(C(C)(C)O)n1 [AZD1775] (first compound max 1 µM, partner max 1 µM) | 0.631 | 0.616 | 1 | 1 | 0.386 | 0.86 | 0.262 | 0.965 | 0.967 | 0.732 | 0.394 | 0.265 | 0.796 | 0.347 | 1 | 0.481 | 0.835 | 0.715 | 0.574 | 0.289 |

— the supplement of paper PMC11061612
